For 64 compounds, melting point results are on record in a melting point compilation (Tetko et al.; mined from patent text by program, amines drawn as free bases though some values may be those of a salt).

One may read the melting point as the temperature, or range, at which the solid turns liquid.

SMILES strings stand for the structures.

Take `O=c1[nH]c2cc(Cl)ccc2n(C2CCCCC2)c1=O`: the melting point lay within 265 to 266 °C.

Take `Cc1ccccc1C(=O)Nc1ccc(C(=O)N2CCCC(N(C)S(C)(=O)=O)c3ccccc32)cc1` (centres undefined): the melting point was in the range of 197 to 198 °C.

Turning to `COC(=O)C=Cc1ccc(OCc2nc(-c3ccccc3)oc2C)c(C(F)(F)F)c1`, the melting point is 148 to 149 °C.

`CC(=O)Oc1nn(-c2ccc(C)cc2)c(=O)c2c1Nc1cc(Cl)ccc1C2`: the melting point was 238 to 240 °C.

Regarding `CCOC(=O)c1c(C(=O)c2nc(OC)cc(OC)n2)ccnc1Br`, the melting point lay in the range of 98 to 99 °C.

For `Cc1ccc(-c2noc3c(Cl)c(OCC(=O)O)ccc23)o1`, the melting point lay in the range of 217 to 219 °C.

As for `CC1CC(=O)NN=C1c1ccc(NC(=NC#N)NCc2ccccc2)cc1` (centres undefined), the melting point lay within 228 to 229 °C.

For `CC(C(=O)O)c1ccc(N2CCC=N2)c(Cl)c1` (centres undefined), the melting point lay within 94 to 102 °C.

`Cc1nc(C(=O)NCCN(C)C)c2n1-c1ccc(Cl)cc1C(c1ccccc1F)=NC2`: the melting point lay in the range of 209 to 211 °C.

`NN(Cc1ccc(Cl)cc1)c1ccc(OCc2ccc3ccccc3n2)cc1` showed a melting point of 130 °C.

For the compound `CC(=O)Nc1cccc2c1C(=O)c1c-2n[nH]c1-c1ccc(O)cc1`, the melting point was > 300 °C.

As for `O=c1[nH]cnc2nn(C3CCCCC3)cc12`, the melting point is 287 to 289 °C.

`COc1cccc(OC)c1N(COC(C)C)C(=O)CCl`: the melting point lay in the range of 85 to 90 °C.

Regarding `CC(C)(C)c1ccc(-c2c(Cl)c(CN3C(=O)CCC3=O)nc3sc4c(c23)CCNC4)cc1`, the melting point is 210 to 212 °C.

`Cc1nc(N2CCN(Cc3ccccc3)C2=O)sc1C(=O)NCc1cc(F)cc(F)c1` had a melting point of 208 to 209 °C.

As for `O=C1c2ccccc2C(=O)c2c(NCCN3CCCCC3)ccc(NCCN3CCCCC3)c21`, the melting point lay in the range of 140 to 141 °C.

The compound `CC(C)OC(=O)c1cc(-n2c(=O)[nH]c3c(c2=O)CCO3)c(F)cc1Cl` returned a melting point of 213 to 215 °C.

Take `COC(=O)c1ccc(NC(=O)[C@H](Cc2ccc(-c3ccccc3)cc2)NCP(=O)(OC)OC)cc1`: the melting point is 128 to 129 °C.

Turning to `CC(=O)Nc1ncc(C)cc1Br`, the melting point lay within 65 to 66 °C.

`COC1OC(COCc2ccccc2)C(OCc2ccccc2)C(NC(C)=O)C1OCc1ccccc1` (centres undefined) came in with a melting point of 147 to 151 °C.

For the compound `O=C(O)C1=Cc2cc(Cl)c(Oc3ccc4cc(Br)ccc4c3)cc2OC1C(F)(F)F` (centres undefined), the melting point lay within 253 to 255 °C.

`Cc1nc(C)c(-c2ccnc(Nc3ccc(NC(=O)CCl)cc3)n2)s1`: the melting point fell in the range of 217 to 219 °C.

The compound `COC1(Cl)C=C(F)C=C(C=O)C1` (centres undefined) returned a melting point of 59 to 61 °C.

`O=C(c1ccc([N+](=O)[O-])cc1)N1Cc2ccccc2-c2ccccc21` displayed a melting point of 153 to 154 °C.

As to `COc1ccc(C(=O)Nc2ccccc2)cc1Oc1ccccc1`, the melting point fell in the range of 200 to 201 °C.

`O=C(O)C(CBr)(c1ccccc1)c1ccccc1` showed a melting point of 201 to 202 °C.

For the compound `COC(=O)C1=C(C)NC(C(C)(OC)OC)=C(C(=O)OC)C1c1ccccc1Cl` (centres undefined), the melting point was in the range of 145 to 146 °C.

`CSc1cccc(COCCCn2ccnc2)c1NC(=O)CC1c2ccccc2Oc2ccccc21` gave a melting point of 176 to 177 °C.

Compound `CCCc1nn(C)c2c(=O)[nH]c(-c3cc(/C=C/C(=O)N(C)C)ccc3OCC)nc12` returned a melting point of 219 to 221 °C.

`O=C(O)c1c(C(F)(F)F)nc2cc(C(F)(F)F)ccc2c1O` had a melting point of 240 °C.

`O=C1C2=C(CCCC2)C(=O)N1c1cc(CO)c(Cl)cc1F` returned a melting point of 135 to 137 °C.

As for `C#CCN(C(=O)c1cc(C)oc1C(F)(F)F)S(=O)(=O)c1cccc(Cl)c1`, the melting point was in the range of 70 to 72 °C.

`CCNc1nc2ccc(CCc3nc4cc(C)ccn4c3Br)cc2o1` registered a melting point of 149 to 153 °C.

`O=c1c(-c2ccccc2)c(Cn2cnc3c(Cl)ncnc32)oc2ccccc12` registered a melting point of 187 to 190 °C.

Compound `CCCOc1nc2cccc(C(=O)OCC)c2n1Cc1ccc(-c2ccccc2-c2nnn[nH]2)cc1` registered a melting point of 157 to 159 °C.

`CCCOC1(C)CN(C(=O)Nc2ccc(C(F)(F)F)cc2)N=C1c1ccc(Cl)cc1` (centres undefined) came in with a melting point of 135 to 138 °C.

For the compound `COC(=O)c1ccc2c(c1)Sc1ccccc1NC2=O`, the melting point is 255 to 257 °C.

In the case of `CCC(=O)Nc1c(C)c2c(c(Cc3ccc(C(C)C)cc3)c1C)OCC2`, the melting point lay in the range of 177 to 178 °C.

`Nc1noc2cc3c(cc12)C1(CO3)C(=O)N(Cc2ccccn2)c2ccccc21` (centres undefined) showed a melting point of 190 to 192 °C.

Take `O=C(NCC12CC3CC(CC(C3)C1)C2)c1ccccc1C(c1ccc(O)cc1)c1ccc(O)cc1`: the melting point lay within 149 to 151 °C.

Turning to `CCCCNC(=O)CCc1ccccc1`, the melting point is 26.7 to 33.1 °C.

`CCS(=O)(=O)N(C)C1CC(C)(C)Oc2ccc(O)cc21` (centres undefined) displayed a melting point of 160 to 162 °C.

In the case of `CCOCc1nc2c(N)nc3cc(N4CCCCC4=O)ccc3c2n1CCCOC(C)C`, the melting point was 205 to 206 °C.

`CC12CCC3C(CCC4CC(=O)CCC43C)C1CC=C2c1cccnc1` (centres undefined) had a melting point of 190 to 192 °C.

`O=C(O)c1ccc2occ(-c3ccccc3)c2c1` returned a melting point of 205 to 209 °C.

Compound `CCCC(=O)OCC(=O)c1ccc(-c2ccccc2)cc1` yielded a melting point of 82 °C.

`Cc1nc(-c2cn(CC(F)(F)c3ccccc3)nn2)sc1C(=O)NCc1cccnc1` had a melting point of 150 to 151 °C.

The compound `CCCCCCCCCCCCCCCCCCc1cc(OC(=O)CC)ccc1O` displayed a melting point of 75 to 78 °C.

`COC(=O)c1ccc(-c2nc(OC(C)=O)c(C)s2)cc1` had a melting point of 124 to 125 °C.

As for `O=C(NCC(=O)OCCC(F)=C(F)F)Nc1ccc(Cl)cc1Cl`, the melting point is 120 °C.

`Nc1nc2cc(Cl)c(Cl)cc2n1C1OC(CO)C(O)C1O` (centres undefined) yielded a melting point of 145 °C.

Compound `Cc1coc2ccc(C#N)cc12` had a melting point of 73 °C.

In turn, `CCOC(=O)c1ccc(NC(=O)c2ccc(OCCCCc3ccccc3)cc2)c(O)c1` returned a melting point of 156 to 158 °C.

In turn, `CC1(C)C(=NO)C(=O)C2(C)CC(O)C12` (centres undefined) gave a melting point of 115 to 118 °C.

The compound `CCOC(=O)C(=CN)C(=O)c1cc(F)c(F)c(F)c1F` yielded a melting point of 118 to 119 °C.

For `O=C(O)C1(C(=O)O)C=CC=CN1`, the melting point is 186 °C.

`O=C(NCCCn1cncn1)c1ccc(Cl)c(Cl)c1` returned a melting point of 128 to 130 °C.

Regarding `O=C1c2cccnc2N(N2CCOCC2)C2=NCCN12`, the melting point is 225 to 226 °C.

Compound `COc1cc2c(cc1OC)CN(c1cc(N)c3cc(OC)c(OC)cc3n1)CC2` came in with a melting point of 226 to 227 °C.

As to `CN1CCN(Cc2cc3c(cc2F)-c2[nH]nc(-c4ccsc4)c2C3)CC1`, the melting point is 115 to 118 °C.

On to `COc1ccc(C(NC(C)=O)C(=O)c2ccc(Cl)cc2)cc1` (centres undefined), for which the melting point came to 140 °C.

Compound `Sc1nsnc1C12CN3CC1C2C3` displayed a melting point of 205 to 207 °C.

Regarding `O=C(O)C(Cl)=Cc1cc(-n2c(=O)cc(C(F)(F)F)[nH]c2=O)ccc1Cl`, the melting point was > 250 °C.

For the compound `CCNc1nc2c(N)nc(C)c(C)c2n1CC(C)C`, the melting point was 168 to 170 °C.
